{"source": "patent US4678810A", "about": "“Medical uses of halogenobenzohenone-oxime derivatives” (Institut de Recherches Chimiques et Biologiques of Appliques, priority 1983, dated 1987)", "key": {"[1]": {"tested_on": "Bacillus subtilis ATCC 6633", "assay": "Antibacterial activity in vitro (MIC), dilution technique", "type": "cell-based", "details": "ATCC6633", "text": "(§1) The antibacterial activity was studied in vitro according to the usual classical dilution techinque with respect to several strains, in order to determine the minimal inhibiting concentration (M.I.C.) i.e. the minimal bacteriostatic concentration.\n(§2) The results thus obtained are tabulated in table II hereinafter, the strains used being those of the catalogues of the \"Institut Pasteur\" of Paris, France (abbreviation: CIP), the \"Centre International de Distribution de Souches et d'Information sur les Types Microbiens de Lausanne\" (abbreviation: La) and the \"American Type Culture Collection\" (abbreviation: ATCC)."}, "[2]": {"tested_on": "Streptococcus pyogenes CIP. 56.41", "assay": "Antibacterial activity in vitro (MIC), dilution technique", "type": "cell-based", "text": "as §1, §2"}, "[3]": {"tested_on": "Staphylococcus aureus London CIP A.238", "assay": "Antibacterial activity in vitro (MIC), dilution technique", "type": "cell-based", "text": "as §1, §2"}, "[4]": {"tested_on": "Streptococcus pyogenes CIP. 56.1", "assay": "Antibacterial activity in vitro (MIC), dilution technique", "type": "cell-based", "text": "as §1, §2"}, "[5]": {"tested_on": "Staphylococcus aureus La 636", "assay": "Antibacterial activity in vitro (MIC), dilution technique", "type": "cell-based", "details": "LA636", "text": "as §1, §2"}, "[6]": {"tested_on": "Streptococcus pyogenes CIP. 56.43", "assay": "Antibacterial activity in vitro (MIC), dilution technique", "type": "cell-based", "text": "as §1, §2"}, "[7]": {"tested_on": "Diplococcus pneumoniae La 209", "assay": "Antibacterial activity in vitro (MIC), dilution technique", "type": "cell-based", "details": "Streptococcus pneumoniae, LA209", "text": "as §1, §2"}, "[8]": {"tested_on": "Staphylococcus aureus La 634", "assay": "Antibacterial activity in vitro (MIC), dilution technique", "type": "cell-based", "details": "LA634", "text": "as §1, §2"}, "[9]": {"tested_on": "Staphylococcus aureus La 659", "assay": "Antibacterial activity in vitro (MIC), dilution technique", "type": "cell-based", "details": "LA659", "text": "as §1, §2"}, "[10]": {"tested_on": "Streptococcus faecalis CIP 55.142", "assay": "Antibacterial activity in vitro (MIC), dilution technique", "type": "cell-based", "details": "Enterococcus faecalis, CIP55", "text": "as §1, §2"}, "[11]": {"tested_on": "Streptococcus faecalis CIP 53.152", "assay": "Antibacterial activity in vitro (MIC), dilution technique", "type": "cell-based", "details": "Enterococcus faecalis, CIP53", "text": "as §1, §2"}, "[12]": {"tested_on": "Staphylococcus aureus ATCC 6538 P", "assay": "Antibacterial activity in vitro (MIC), dilution technique", "type": "cell-based", "details": "ATCC6538", "text": "as §1, §2"}, "[13]": {"tested_on": "Streptococcus pyogenes CIP. A 241", "assay": "Antibacterial activity in vitro (MIC), dilution technique", "type": "cell-based", "details": "CIP.A241", "text": "as §1, §2"}, "[14]": {"tested_on": "Streptococcus pyogenes CIP. 56.45", "assay": "Antibacterial activity in vitro (MIC), dilution technique", "type": "cell-based", "text": "as §1, §2"}, "Streptococcus La 147": {"tested_on": "Streptococcus La 147", "assay": "Antibacterial activity in vitro (MIC), dilution technique", "type": "cell-based", "details": "LA147", "text": "as §1, §2"}, "[15]": {"tested_on": "Diplococcus pneumoniae La 210", "assay": "Antibacterial activity in vitro (MIC), dilution technique", "type": "cell-based", "details": "Streptococcus pneumoniae, LA210", "text": "as §1, §2"}, "[16]": {"assay": "Tolerance: diarrhoea after oral administration", "type": "in vivo", "details": "mice, per os", "method": "(§3) Assays were performed on batches of mice (males and females) weighing each from 18 to 20 g and receiving the compounds to be tested at the doses of 0.5 g/kg, 0.8 g/kg, 1 g/kg, 2 g/kg, 3 g/kg and 4 g/kg per os in an aqueous medium containing 20 g/l of carboxymethylcellulose, the animals being observed during the 14 days following administration."}, "[17]": {"assay": "Acute oral toxicity (DL-50), 14-day observation", "details": "mouse, in vivo, mice, per os, 14 days observation", "method": "as §3"}, "[18]": {"details": "cited from earlier work"}, "[19]": {"assay": "Tolerance: weight / liver hypertrophy after oral administration", "type": "in vivo", "details": "mice, per os, from the dose of 0.8 g/kg", "method": "as §3"}, "[20]": {"assay": "Tolerance: rectal temperature after oral administration", "type": "in vivo", "details": "mice, per os, from the dose of 2 g/kg", "method": "as §3"}, "Gram+ bacteriae": {"tested_on": "Gram+ bacteriae", "details": "commercialized drug; cited from earlier work"}, "[21]": {"tested_on": "acute infections of the otorhinolaryngological system and bronchopathies", "assay": "Clinical assays in acute infections of the otorhinolaryngological system and bronchopathies", "type": "in vivo, human", "details": "humans, acute ENT infections and bronchopathies", "method": "Clinical assays carried out on human beings suffering from infectious disease caused by Gram+ bacteriae and Neisseria Gram- bacteria gave fair and good results, especially when the pharmaceutical composition according to the invention which was administered suitably contained from 0.1 to 95% by weight of at least one compound of the formula I.\nFor oral administration, the composition is preferably formulated as tablets or gelatine-coated capsules, each tablet or capsule containing from 10 to 200 mg of the active ingredient. For the treatment of infections due to Gram+ bacteriae and Neisseria, such tablets or capsules are suitably administered to human patients at the rate of 2 to 8 tablets or capsules per day, for at least 4 days and preferably from 4 to 7 days, in particular for compound B.602."}, "[22]": {"parameters": "species or system mice", "details": "mouse, in vivo", "method": "as §3"}, "Gram+ strains": {"tested_on": "Gram+ strains", "assay": "Antibacterial activity in vitro, summary for Gram+ strains", "type": "cell-based, Gram+ bacteriae", "details": "compared with B.11", "text": "as §1, §2"}, "[23]": {"tested_on": "Gram- strains such as Neisseria", "assay": "Antibacterial activity in vitro, summary for some Gram- strains", "type": "cell-based", "text": "as §1, §2"}}, "data": [{"molecule": "CC(C)(C)CC(C)(C)c1ccc(O)c(Cc2ccc(Cl)cc2Cl)c1", "note": "[Clofoctol, 2-(2,4-dicholrobenzyl)-4-(1,1,3,3-tetramethylbutyl)-phenol]", "values": [{"measurement": "MIC", "setting": "[1]", "value": 4, "unit": "µg/mL"}, {"measurement": "MIC", "setting": "[2]", "value": 4, "unit": "µg/mL"}, {"measurement": "MIC", "setting": "[3]", "value": 3, "unit": "µg/mL"}, {"measurement": "MIC", "setting": "[4]", "value": 3, "unit": "µg/mL"}, {"measurement": "MIC", "setting": "[5]", "value": 5, "unit": "µg/mL"}, {"measurement": "MIC", "setting": "[6]", "value": 2, "unit": "µg/mL"}, {"measurement": "MIC", "setting": "[7]", "value": 4, "unit": "µg/mL"}, {"measurement": "MIC", "setting": "[8]", "value": 6, "unit": "µg/mL"}, {"measurement": "MIC", "setting": "[9]", "value": 6, "unit": "µg/mL"}, {"measurement": "MIC", "setting": "[10]", "value": 5, "unit": "µg/mL"}, {"measurement": "MIC", "setting": "[11]", "value": 6, "unit": "µg/mL"}, {"measurement": "MIC", "setting": "[12]", "value": 8, "unit": "µg/mL"}, {"measurement": "MIC", "setting": "[13]", "value": 4, "unit": "µg/mL"}, {"measurement": "MIC", "setting": "[14]", "value": 2, "unit": "µg/mL"}, {"measurement": "MIC", "setting": "Streptococcus La 147", "value": 7, "unit": "µg/mL"}, {"measurement": "MIC", "setting": "[15]", "value": 5, "unit": "µg/mL"}, {"measurement": "dose at which it begins to induce diarrhoea", "setting": "[16]", "value": 800, "unit": "mg/kg"}, {"measurement": "LD50 at 336 h", "setting": "[17]", "value": 2000, "unit": "mg/kg"}, {"measurement": "hydrosolubility / hydrodispersibility", "setting": "[18]", "value": "not naturally hydrosoluble nor hydrodispersible"}, {"measurement": "liver hypertrophy", "setting": "[19]", "value": "induces a slight liver hypertrophy"}, {"measurement": "reduction of rectal temperature", "setting": "[20]", "value": "reduces the rectal temperature for 48 hours"}, {"measurement": "effectiveness in infectious diseases caused by Gram+ bacteriae", "setting": "Gram+ bacteriae", "value": "particularly effective"}]}, {"molecule": "CC(C)(C)CC(C)(C)c1ccc(O)c(C(=NO)c2ccc(Cl)cc2Cl)c1", "note": "[Example 1, 2',4'-dichloro-2-hydroxy-5-(1,1,3,3-tetramethylbutyl)-benzophenone-oxime]", "values": [{"measurement": "MIC", "setting": "[1]", "value": 1, "unit": "µg/mL"}, {"measurement": "MIC", "setting": "[2]", "value": 3, "unit": "µg/mL"}, {"measurement": "MIC", "setting": "[3]", "value": 1, "unit": "µg/mL"}, {"measurement": "MIC", "setting": "[4]", "value": 2, "unit": "µg/mL"}, {"measurement": "MIC", "setting": "[5]", "value": 4, "unit": "µg/mL"}, {"measurement": "MIC", "setting": "[6]", "value": 1, "unit": "µg/mL"}, {"measurement": "MIC", "setting": "[7]", "value": 4, "unit": "µg/mL"}, {"measurement": "MIC", "setting": "[8]", "value": 3, "unit": "µg/mL"}, {"measurement": "MIC", "setting": "[9]", "value": 5, "unit": "µg/mL"}, {"measurement": "MIC", "setting": "[10]", "value": 2, "unit": "µg/mL"}, {"measurement": "MIC", "setting": "[11]", "value": 3, "unit": "µg/mL"}, {"measurement": "MIC", "setting": "[12]", "value": 4, "unit": "µg/mL"}, {"measurement": "MIC", "setting": "[13]", "value": 2, "unit": "µg/mL"}, {"measurement": "MIC", "setting": "[14]", "value": 1, "unit": "µg/mL"}, {"measurement": "MIC", "setting": "Streptococcus La 147", "value": 2, "unit": "µg/mL"}, {"measurement": "MIC", "setting": "[15]", "value": 3, "unit": "µg/mL"}, {"measurement": "LD50 at 336 h", "setting": "[17]", "value": "> 4000", "unit": "mg/kg"}, {"measurement": "clinical result as a bactericidal agent", "setting": "[21]", "value": "very interesting as a bactericidal agent"}, {"measurement": "tolerance compared with B.11", "setting": "[22]", "value": "better tolerated than B.11"}, {"measurement": "activity against Gram+ strains", "setting": "Gram+ strains", "value": "more active than B.11"}, {"measurement": "activity against some Gram- strains", "setting": "[23]", "value": "active against some Gram- strains such as Neisseria"}]}]}
